The values that follow come from patent US20220106304A1, “Transcription Factor BRN2 Inhibitory Compounds as Therapeutics and Methods for Their Use” (The University of British Columbia, priority 2018, published 2022).

Data set [1] concerns the target T1, BRN2 (Homo sapiens, UniProt P20265).
T1 sequence (P20265 1-443): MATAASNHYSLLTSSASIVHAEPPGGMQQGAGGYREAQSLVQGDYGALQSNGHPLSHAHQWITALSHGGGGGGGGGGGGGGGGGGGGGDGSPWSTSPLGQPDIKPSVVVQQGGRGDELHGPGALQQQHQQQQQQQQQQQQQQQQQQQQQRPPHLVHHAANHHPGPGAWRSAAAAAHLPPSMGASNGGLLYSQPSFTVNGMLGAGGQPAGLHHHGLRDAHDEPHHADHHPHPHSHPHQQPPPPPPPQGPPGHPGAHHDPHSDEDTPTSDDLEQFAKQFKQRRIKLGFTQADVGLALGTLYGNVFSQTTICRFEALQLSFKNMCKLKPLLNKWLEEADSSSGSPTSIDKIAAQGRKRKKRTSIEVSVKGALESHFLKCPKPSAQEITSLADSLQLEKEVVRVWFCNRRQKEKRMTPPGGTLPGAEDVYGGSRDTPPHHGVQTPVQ
Kind of data set: cell-based. The note with it: negative = activation; for inhibition at 10 µM: read-out: % BRN2 Inhibition (10 μM), 10 μM compound, 24 hours, 42D^ENZR cells stably expressing BRN2-luciferase reporter; for inhibition at 30 µM: read-out: % BRN2 Inhibition (30 μM), 30 μM compound, 24 hours, 42D^ENZR cells stably expressing BRN2-luciferase reporter. An excerpt:
Decreased expression of luciferase protein is validated via western blot to confirm downregulation and avoid false positive molecules that inhibit luciferase protein activity and not BRN2-drive luciferase expression. Molecules are prioritized by their inhibition potency to measure direct interaction with BRN2 in Step 2.
In TABLES 1 and 2, when a single value is mentioned in columns Met Stab % and T½, it refers to compound's stability in MLM and when two values are given they represent HLM/MLM. There is a distinction in TABLES 1 and 2 difference between “Active” and “Specific” or “Specificity”. Compounds are first tested to quantify inhibition of BRN2 transcriptional activity in a luciferase assay to determine “Activity” at […] and 30 μM concentrations. […] Where data is not available “na” is inserted. Where data has yet to be calculated the notation “nc” is used.
(In general: A reporter such as luciferase makes a cellular process visible.)

Data set [2] in a line: Liver microsome metabolic stability, MLM. Type of data set: in vitro ADME. The note with it: MLM (single value or second of two), 1 μM compound, 0.25 mg/mL protein; for Met Stab % (60 mins HLM/MLM): percent remaining at 60 min, 1 mM NADPH; for half-life at 1 µM: mouse, liver microsomes, pH 7.4, read-out: T1/2 in (mins HLM/MLM). The protocol:
Potassium phosphate buffer (Kphos) was prepared by adding 0.647 g potassium phosphate monobasic (KH2PO4) and 3.527 g potassium phosphate dibasic ([…]) to 400 mL of Milli-Q water. pH of the buffer was adjusted to 7.4 and volume was made up to 500 mL.
Microsomes (20 mg/mL) were diluted in KH2PO4 buffer to prepare a concentration of 0.357 mg/mL.
Stock solutions of BRN2 inhibitors were prepared in DMSO at a concentration of 1 mM
A stock solution of 3.33 mM NADPH (3.33×) was prepared by dissolving appropriate amount of NADPH in KH2PO4 buffer.
Total Incubation volume: 100 μL
Compound concentration: 1 μM
Protein Concentration: 0.25 mg/mL
An 1120 μL aliquot of Kphos buffer (50 mM, pH 7.4) containing liver microsomes (0.357 mg/mL) were added to individual 2 mL tubes (final concentration 0.25 mg/mL). Test compounds (1 mM) and positive controls were directly spiked into respective tubes to prepare a concentration of 1.428 μM (final concentration 1 μM). From the above mix, 70 μL was added to individual wells of 96 well reaction plates and pre-incubated in a 37° C. water bath for 5 min. All the reactions were initiated by adding 30 μL of 3.33 mM NADPH (final concentration 1 mM). Reactions without NADPH and buffer controls (minus NADPH) at 0 min and 60 min were also incubated to rule out non-NADPH metabolism or chemical instability in the incubation buffer. All reactions were terminated using 100 μL of ice-cold acetonitrile containing internal standard at 0, 5, 15, 30 and 60 min. The plates were centrifuged at 4000 RPM for 15 min and 100 μL aliquots were submitted for analysis by LC-MS/MS.
Samples were monitored for parent compounds disappearance in MRM mode using LC-MS/MS.
The percent remaining of test compounds and positive control in each sample was determined by considering peak area ratio in the 0 minute sample as 100%. The Half-life of compounds in microsomes is calculated by formula:
Half-life (t½) (min)=0.693/k, where k is gradient of line determined from plot of peak area ratio (compound peak area/internal standard peak area) against time.
In vitro intrinsic clearance (CL'int) (units in mL/min/kg) was calculated using the formula.
[formula] • For liver microsomes, scaling factor used was 45 mg microsomal protein per gm liver. • Indicates liver weight (gm) which varies species wise. For mice the liver weights are 90 gm.
Where data is not available “na” is inserted.

For the molecule `Cn1c(-c2ccc(-c3cccc(C#N)c3)o2)nc2ccccc21` [VPC-18-63, 3-(5-(1-methyl-1H-benzo[d]imidazol-2-yl)furan-2-yl)benzonitrile], in data set [1], the inhibition (as a rule, the drop in the measured response relative to a control, in per cent) at 10 µM stood at 72% and the inhibition at 30 µM was 94%. Further, the “Met Stab % (60 mins HLM/MLM)” value in data set [2] is recorded as 0%.
For the molecule `FC(F)(F)c1ccc2cc(-c3csc(N4CCCC4)n3)oc2c1` [VPC-18-72, 2-(pyrrolidin-1-yl)-4-(6-(trifluoromethyl)benzofuran-2-yl)thiazole], in data set [1], the inhibition at 10 µM came to 45.9% and the inhibition at 30 µM worked out at 62.4%. Also, in data set [2], the “Met Stab % (60 mins HLM/MLM)” value is listed as 8% and the half-life at 1 µM came out at 18 min.
The like results for `FC(F)(F)c1ccc2cc(-c3csc(NC4CC4)n3)oc2c1` [VPC-18-73, N-cyclopropyl-4-(6-(trifluoromethyl)benzofuran-2-yl)thiazol-2-amine] were, in that order, 78.8%, 95.7%, 2% and 11 min.
On the same counts, the results for `Cc1c(-c2ccc(-c3ccccc3)o2)oc2ccccc12` [VPC-18-74, 3-methyl-2-(5-phenylfuran-2-yl)benzofuran] are 96.7%, 99%, 2% and 11 min.
With `c1coc(-c2nc(-c3cc4ncccc4o3)cs2)c1` [VPC-18-75, 2-(2-(furan-2-yl)thiazol-4-yl)furo[3,2-b]pyridine], in data set [1], the inhibition at 10 µM was 71.9% and the inhibition at 30 µM was found to be 91.9%. In data set [2], the “Met Stab % (60 mins HLM/MLM)” value amounted to 0%.
As for `FC(F)(F)c1ccc2nc(-c3csc(C4=CCOCC4)n3)oc2c1` [VPC-18-77], in data set [1], the inhibition at 10 µM was 11.3% and the inhibition at 30 µM amounted to 63.4%. Moreover, in data set [2], the “Met Stab % (60 mins HLM/MLM)” value is 24% and the half-life at 1 µM came out at 29 min.
The like results for `FC(F)(F)c1ccc2cc(-c3csc(N4CCOCC4)n3)oc2c1` [VPC-18-78, 4-(4-(6-(trifluoromethyl)benzofuran-2-yl)thiazol-2-yl)morpholine] were, in that order, 43.6%, 79.6%, 25% and 30 min.
Consider `N#Cc1ccc2cc(-c3csc(-c4ccco4)n3)oc2c1` [VPC-18-80], for which, in data set [1], the inhibition at 10 µM was 42% and the inhibition at 30 µM is 44%. The “Met Stab % (60 mins HLM/MLM)” value in data set [2] is 0%.
Turning to `Cn1c(-c2ccc(C3CCNCC3)o2)nc2ccc(C(F)(F)F)cc21` [VPC-18-82], in data set [1], the inhibition at 10 µM came out at 11% and the inhibition at 30 µM turned out to be 50%. Besides, in data set [2], the “Met Stab % (60 mins HLM/MLM)” value amounted to 100% and the half-life at 1 µM is over 60 min.
On the same counts, the results for `FC(F)(F)c1ccc2cc(-c3csc(NCC4CC4)n3)oc2c1` [VPC-18-86] are 32%, 92%, 5% and 13 min.
On the same counts, the results for `FC(F)(F)c1ccc2nc(-c3ccc(-c4ccccc4)o3)[nH]c2c1` [VPC-18-87] are 85%, 87%, 37% and 40 min.
The like results for `N#Cc1c(-c2csc(-c3ccco3)n2)oc2ccccc12` [VPC-18-88, 2-(2-(furan-2-yl)thiazol-4-yl)benzofuran-3-carbonitrile] were, in that order, 76%, 96%, 0% and 9 min.
For the molecule `FC(F)(F)c1ccc2cc(-c3csc(C4CCNCC4)n3)oc2c1` [VPC-18-89, 2-(piperidin-4-yl)-4-(6-(trifluoromethyl)benzofuran-2-yl)thiazole], in data set [1], the inhibition at 10 µM turned out to be 65% and the inhibition at 30 µM turned out to be 98%. In data set [2], the “Met Stab % (60 mins HLM/MLM)” value worked out at 65% and the half-life at 1 µM is over 60 min.
In the case of `Clc1ccc2cc(-c3csc(N4CC5CC4CO5)n3)oc2c1` (stereo not shown) [VPC-18-91, 5-(4-(6-chlorobenzofuran-2-yl)thiazol-2-yl)-2-oxa-5-azabicyclo[2.2.1]heptane], in data set [1], the inhibition at 10 µM was found to be 70% and the inhibition at 30 µM came out at 96%. Besides, in data set [2], the “Met Stab % (60 mins HLM/MLM)” value is 2% and the half-life at 1 µM stood at 11 min.
On the same counts, the results for `Clc1ccc2nc(-c3ccc(-c4ccccc4)o3)[nH]c2c1` [VPC-18-92, 6-chloro-2-(5-phenylfuran-2-yl)-1H-benzo[d]imidazole] are 83%, 98.4%, 0% and 6 min.
For `Fc1ccc(-c2nc(-c3nc4ccc(C(F)(F)F)cc4o3)cs2)o1` [VPC-18-93], in data set [1], the inhibition at 10 µM is -9.9% and the inhibition at 30 µM was determined as 30.2%. In addition, in data set [2], the “Met Stab % (60 mins HLM/MLM)” value is given as 26% and the half-life at 1 µM turned out to be 34 min.
The like results for `Clc1ccc2cc(-c3csc(-c4ccn[nH]4)n3)oc2c1` [VPC-18-96, 4-(6-chlorobenzofuran-2-yl)-2-(1H-pyrazol-5-yl)thiazole] were, in that order, 83.5%, 92.5%, 35% and 45 min.
On the same counts, the results for `FC(F)(F)c1ccc2cc(-c3csc(-c4ncco4)n3)oc2c1` [VPC-18-98, 2-(4-(6-(trifluoromethyl)benzofuran-2-yl)thiazol-2-yl)oxazole] are 84%, 86%, 53% and over 60 min.
The like results for `Clc1ccc2cc(-c3csc(-c4ncco4)n3)oc2c1` [VPC-18-99] were, in that order, 29.3%, 39.2%, 28% and 36 min.
On to `Fc1sc(-c2ccco2)nc1-c1cc2ccc(C(F)(F)F)cc2o1` [VPC-18-100], for which, in data set [1], the inhibition at 10 µM is 8.8% and the inhibition at 30 µM worked out at 56.3%. In addition, in data set [2], the “Met Stab % (60 mins HLM/MLM)” value is 1% and the half-life at 1 µM worked out at 10 min.
Regarding `Clc1ccc2cc(-c3cncc(-c4ccc[nH]4)n3)oc2c1` [VPC-18-130], in data set [2], the “Met Stab % (60 mins HLM/MLM)” value came to 1% and the half-life at 1 µM is 9 min.
On the same counts, the results for `Clc1ccc2cc(-c3cccc(-c4ccc[nH]4)c3)oc2c1` [VPC-18-153] are 2% and 11 min.
The like results for `Clc1ccc2cc(-c3csc(-c4nccs4)n3)oc2c1` [VPC-18-165] were, in that order, 6% and 16 min.
On to `Fc1c(Cl)ccc2cc(-c3csc(-c4ccc[nH]4)n3)oc12` [VPC-18-166], for which, in data set [2], the “Met Stab % (60 mins HLM/MLM)” value amounted to 1% and the half-life at 1 µM came to 10 min.
